Values of other authors in patent US12435156B2, “Methods for treating neuroblastoma with combination therapy” (MEMORIAL SLOAN-KETTERING CANCER CENTER, priority 2018, dated 2025).

Assays:
topoisomerase I = target: T1, topoisomerase I (Homo sapiens, UniProt P11387)
T1 sequence (P11387 1-765): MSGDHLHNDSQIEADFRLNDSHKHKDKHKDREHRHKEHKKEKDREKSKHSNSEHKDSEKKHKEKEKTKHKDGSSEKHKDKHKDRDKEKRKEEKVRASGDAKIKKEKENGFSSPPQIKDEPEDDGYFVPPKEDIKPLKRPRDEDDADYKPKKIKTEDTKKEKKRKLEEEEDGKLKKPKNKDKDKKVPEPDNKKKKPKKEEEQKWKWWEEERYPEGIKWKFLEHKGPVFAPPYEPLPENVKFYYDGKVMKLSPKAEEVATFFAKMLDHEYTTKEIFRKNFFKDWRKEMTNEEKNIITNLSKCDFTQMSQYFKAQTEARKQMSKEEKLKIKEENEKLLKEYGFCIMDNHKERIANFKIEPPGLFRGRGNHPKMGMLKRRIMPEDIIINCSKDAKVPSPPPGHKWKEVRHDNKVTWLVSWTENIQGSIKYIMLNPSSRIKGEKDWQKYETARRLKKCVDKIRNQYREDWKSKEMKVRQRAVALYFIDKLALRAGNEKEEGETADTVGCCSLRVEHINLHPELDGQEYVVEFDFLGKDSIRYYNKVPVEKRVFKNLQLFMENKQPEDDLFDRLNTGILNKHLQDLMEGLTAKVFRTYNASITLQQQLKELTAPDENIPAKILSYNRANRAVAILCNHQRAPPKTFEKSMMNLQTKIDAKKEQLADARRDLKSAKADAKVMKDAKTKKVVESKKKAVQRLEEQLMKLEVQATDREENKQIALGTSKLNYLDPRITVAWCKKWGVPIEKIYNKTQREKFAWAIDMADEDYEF

[1] = not given; remark: listed apart in the source
[2] = human, in vivo
[3] = not given; remark: listed apart in the source
[4] = not given; remark: listed apart in the source

Molecule: Cn1nnc2c(C(=O)O)ncn2c1=O [temozolomide acid metabolite]
- Recovery of radioactivity in urine as this species (after temozolomide radioactive dose): 2.3%

Molecule: CCc1c2c(nc3ccc(O[C@@H]4O[C@H](C(=O)O)[C@@H](O)[C@H](O)[C@H]4O)cc13)-c1cc3c(c(=O)n1C2)COC(=O)[C@]3(O)CC [SN-38G, SN-38 glucuronide]
- Topoisomerase I inhibitor potency/activity (topoisomerase I): inactive

Molecule: Cn1nnc2c(C(N)=O)ncn2c1=O [Temozolomide, 3,4-dihydro-3-methyl-4-oxoimidazo[5,1-d]-as-tetrazine-8-carboxamide]
- Role of cytochrome P450 enzymes in metabolism (Cytochrome P450 enzymes): only a minor role
- Mean apparent volume of distribution (% CV=13%): 0.4 L/kg
- Kinetics over the therapeutic dosing range (in vivo): linear kinetics
- Overall clearance (in vivo): about 5.5 L/hr/m^2
- Absorption after oral administration (oral): rapidly and completely absorbed
- Time of peak plasma concentrations (oral administration): 1 h
- Administered total radioactive dose recovered in feces (over 7 days): 0.8%
- Administered total radioactive dose recovered in urine (over 7 days): 37.7%
- Administered total radioactive dose recovered (over 7 days, total): About 38%
- Stability at physiologic pH [1]: spontaneously hydrolyzed
- Dose-limiting side effects [2]: hematologic toxicity, myelosuppression, anemia, and leukopenia
- Mean percent bound of drug-related total radioactivity (human plasma proteins): 15%

Molecule: sargramostim: Yeast-derived human recombinant granulocyte-macrophage colony stimulating factor
- Storage of liquid once the vial has been entered ([3]; 2-8° C.): up to 20 days
- pH of reconstituted solution ([3]; 250 mcg vial reconstituted with 0.5 mL sterile water, 500 mcg/mL): 7.4±0.3
- Time to administration following reconstitution ([3]; single-use 250 mcg vials, no preservative): ≤ 6 h

Molecule: CCc1c2c(nc3ccc(OC(=O)N4CCC(N5CCCCC5)CC4)cc13)-c1cc3c(c(=O)n1C2)COC(=O)[C@]3(O)CC [Irinotecan, (S)-4,11-diethyl-4-hydroxy-3,14-dioxo-3,4,12,14-tetrahydro-1H-pyrano[3′,4′:6,7]indolizino[1,2-b]quinolin-9-yl [1,4′-bipiperidine]-1′-carboxylate]
- Water solubility [4]: water-soluble
- Toxicity associated with treatment [2]: severe diarrhea, myelosuppression, and neutropenia

Molecule: NC(=O)c1[nH]cnc1N [AIC]
- Exposure relative to the AUC of temozolomide (in vivo): 23%

Molecule: CCc1c2c(nc3ccc(O)cc13)-c1cc3c(c(=O)n1C2)COC(=O)[C@]3(O)CC [SN-38, 7-ethyl-10-hydroxycamptothecin]
- Topoisomerase I inhibitor potency/activity (topoisomerase I): much higher potency than irinotecan
